Results taken from ChEMBL document CHEMBL1201862, “PubChem BioAssay data set” (2004).
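Protocol summary: plate cells (96-well), add compound at 5 concentrations, incubate 48 h, interpolate endpoints linearly. GI50 marks 50% less growth.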 The source made the active and inactive calls. No stated cut-off is given here; in the data, active = GI50 up to about 1.1 µM and inactive = higher.

Key:
Test in all cases: NCI-60 cell line screen, 48 h
EKVX = system: EKVX
OVCAR-4 = system: OVCAR-4
UACC-257 = system: UACC-257
HOP-62 = system: HOP-62
SK-MEL-2 = system: SK-MEL-2
RXF 393 = system: RXF 393
HCC 2998 = system: HCC 2998
SK-MEL-28 = system: SK-MEL-28
SNB-75 = system: SNB-75
SF-268 = system: SF-268
TK-10 = system: TK-10
K562 = system: K562
NCI-H23 = system: NCI-H23
HOP-92 = system: HOP-92
NCI-H522 = system: NCI-H522
CCRF-CEM = system: CCRF-CEM
SN12C = system: SN12C
SW-620 = system: SW-620
OVCAR-8 = system: OVCAR-8
SK-OV-3 = system: SK-OV-3

Measured: GI50

O=C(c1ccccc1)c1cccc(C(=O)c2ccccc2)c1
inactive: EKVX > 100 µM | OVCAR-4 > 100 µM | UACC-257 > 100 µM | HOP-62 > 100 µM | SK-MEL-2 > 100 µM | RXF 393 76.4 µM | HCC 2998 > 100 µM | SK-MEL-28 > 100 µM | SNB-75 82 µM | SF-268 > 100 µM | TK-10 > 100 µM | K562 > 100 µM | NCI-H23 98.2 µM | HOP-92 53 µM | NCI-H522 > 100 µM | CCRF-CEM 63.8 µM | SN12C > 100 µM | SW-620 > 100 µM | OVCAR-8 > 100 µM | SK-OV-3 > 100 µM

O=C1C2C3CC(C4C5C=CC(C5)C34)C2C2C3CC(C12)C1C2C=CC(C2)C31 (stereo not given)
inactive: EKVX > 100 µM | OVCAR-4 > 100 µM | UACC-257 > 100 µM | HOP-62 > 100 µM | SK-MEL-2 > 100 µM | RXF 393 > 100 µM | HCC 2998 > 100 µM | SK-MEL-28 > 100 µM | SNB-75 > 100 µM | SF-268 90.8 µM | TK-10 > 100 µM | K562 > 100 µM | NCI-H23 > 100 µM | HOP-92 > 100 µM | NCI-H522 > 100 µM | CCRF-CEM 61.4 µM | SN12C > 100 µM | SW-620 20.8 µM | OVCAR-8 > 100 µM | SK-OV-3 > 100 µM

CSC1(SC2=NCCN2)SC2(NCCN2)S1
inactive: EKVX 20.3 µM | OVCAR-4 20.4 µM | UACC-257 20.6 µM | HOP-62 17.5 µM | SK-MEL-2 19.2 µM | RXF 393 7.53 µM | HCC 2998 15.5 µM | SK-MEL-28 20.2 µM | SNB-75 17.3 µM | SF-268 18.2 µM | TK-10 6.34 µM | K562 12.5 µM | NCI-H23 16.3 µM | HOP-92 13.5 µM | NCI-H522 11.8 µM | CCRF-CEM 1.21 µM | SN12C 20.7 µM | SW-620 9.04 µM | OVCAR-8 19.7 µM | SK-OV-3 21.6 µM

COc1ccc(C(SCCO)(c2ccccc2)c2ccc(OC)cc2)cc1
inactive: EKVX 13.2 µM | OVCAR-4 15.8 µM | UACC-257 14.7 µM | HOP-62 15.8 µM | SK-MEL-2 11.1 µM | RXF 393 8.24 µM | HCC 2998 5.4 µM | SK-MEL-28 16.3 µM | SNB-75 4.58 µM | SF-268 10.2 µM | TK-10 18.1 µM | K562 16.7 µM | NCI-H23 18.7 µM | HOP-92 14.6 µM | NCI-H522 10.8 µM | CCRF-CEM 12.6 µM | SN12C 14.5 µM | SW-620 15.3 µM | OVCAR-8 19.2 µM | SK-OV-3 10.8 µM

COc1ccc(N2C(=O)C(Cl)C2c2cc3cc(Br)ccc3nc2Cl)cc1 (stereo not given)
inactive: EKVX 4.67 µM | OVCAR-4 4.36 µM | UACC-257 5.2 µM | HOP-62 6.44 µM | SK-MEL-2 5.12 µM | RXF 393 4.09 µM | HCC 2998 4.09 µM | SK-MEL-28 7.28 µM | SNB-75 20.5 µM | SF-268 6.38 µM | TK-10 7.52 µM | K562 7.24 µM | NCI-H23 5.98 µM | HOP-92 8.38 µM | NCI-H522 3.81 µM | CCRF-CEM 1.86 µM | SN12C 5.79 µM | SW-620 5.55 µM | OVCAR-8 13.4 µM | SK-OV-3 16.6 µM
